The source of these data is patent publication US20220411419A1, “SMALL MOLECULE MODULATORS OF MHC-I” (RetroVirox, Inc., priority 2018, published 2022).

Where only a bound is given, the exact number is not on record here.

Series [1] has as its system downmodulation of MHC-I molecules expressed on the surface of HIV infected SupT1 cells. The series can be described thus: cells. As to conditions: for EC50: Human immunodeficiency virus 1, SUP-T1, read-out: EC50 for inhibition of MHC-I downmodulation utilizing the R1 parameter; for activity at 100 µM: Human immunodeficiency virus 1, SUP-T1, read-out: R1 @ 100 μM (R1 value for MHC-I downmodulation as % of the vehicle control).

Another series in a line: in vitro. As to conditions: human, uninfected SupT1 cells.

For the compound `CC1(C)Cc2cccc(OCC(=O)Nc3cccc(Br)n3)c2O1` [Compound 30, N-(6-Bromopyridin-2-yl)-2-((2,2-dimethyl-2,3-dihydrobenzofuran-7-yl)oxy)acetamide], the EC50 in series [1] came out at 20 µM. In “in vitro”, this compound displayed a CC50 at 48 h of over 125 µM.
As to `CC1(C)Cc2cccc(CCC(=O)Nc3nc4c(F)cccc4s3)c2O1` [Compound 107, 3-(2,2-Dimethyl-2,3-dihydrobenzofuran-7-yl)-N-(4-fluorobenzo[d]thiazol-2-yl)propanamide], the EC50 in series [1] was 0.37 µM. Moreover, the CC50 at 48 h in “in vitro” was over 100 µM.
As for `COc1ccccc1OCC(=O)Nc1nc2c(Cl)cccc2s1` [Compound 188, N-(4-Chlorobenzo[d]thiazol-2-yl)-2-(2-methoxyphenoxy)acetamide], in series [1], the EC50 is at least 10 µM and the activity at 100 µM was 37%. In “in vitro”, the CC50 was over 100 µM and the CC50 at 48 h is over 100 µM.
Turning to `CC1(C)Cc2cccc(OCC(=O)Nc3nc4c(F)c(F)c(F)cc4s3)c2O1` [Compound 4, 2-((2,2-Dimethyl-2,3-dihydrobenzofuran-7-yl)oxy)-N-(4,5,6-trifluorobenzo [d]thiazol-2-yl)acetamide], in series [1], the EC50 was found to be 0.068 µM. In “in vitro”, this compound came in with a CC50 at 48 h of over 100 µM.
Regarding `CC1(C)Cc2cccc(OCC(=O)Nc3nc(C(=O)N4CCCCC4)cs3)c2O1` [Compound 151, 2-((2,2-Dimethyl-2,3-dihydrobenzofuran-7-yl)oxy)-N-(4-(piperidine-1-carbonyl)thiazol-2-yl)acetamide], in series [1], the EC50 is over 25 µM and the activity at 100 µM is 51%. In “in vitro”, this compound had a CC50 of over 90 µM and a CC50 at 48 h of over 90 µM.
In the case of `COc1ccc(OCC(=O)N(C)c2nc3c(s2)CCCC3)cc1` [Compound 127, 2-(4-Methoxyphenoxy)-N-methyl-N-(4,5,6,7-tetrahydrobenzo[d]thiazol-2-yl) acetamide], the EC50 in series [1] was over 25 µM. In addition, the CC50 at 48 h in the series “in vitro” is over 125 µM.
Consider `COc1ccc(N(C(=O)COc2cccc3c2OC(C)(C)C3)c2nc(C)cs2)cc1` [Compound 62, 2-((2,2-Dimethyl-2,3-dihydrobenzofuran-7-yl)oxy)-N-(4-methoxyphenyl)-N-(4-methylthiazol-2-yl)acetamide], for which the EC50 in series [1] came to 0.48 µM. In addition, in “in vitro”, the CC50 at 48 h is over 100 µM.
As to `Cc1nc(N(Cc2ccccc2)C(=O)COc2cccc3c2OC(C)(C)C3)sc1C` [Compound 31, N-Benzyl-2-((2,2-dimethyl-2,3-dihydrobenzofuran-7-yl)oxy)-N-(4,5-dimethylthiazol-2-yl)acetamide], the EC50 in series [1] is 0.21 µM. In the series “in vitro”, this compound showed a CC50 at 48 h of over 100 µM.
Turning to `C=C(C)c1ccc(NC(=O)COc2cccc3c2OC(C)(C)C3)nn1` [Compound 86, 2-((2,2-Dimethyl-2,3-dihydrobenzofuran-7-yl)oxy)-N-(6-(prop-1-en-2-yl)pyridazin-3-yl)acetamide], the EC50 in series [1] came out at 1.1 µM. In “in vitro”, this compound gave a CC50 at 48 h of over 100 µM.
For `CN(C(=O)COc1cccc2c1OC(C)(C)C2)c1nc2ccccc2s1` [Compound 144, N-(benzo[d]thiazol-2-yl)-2-((2,2-dimethyl-2,3-dihydrobenzofuran-7-yl)oxy)-N-methylacetamide], in that order: 29 µM and over 90 µM.
In the case of `CC1(C)Cc2cccc(OCC(=O)Nc3nc4ccc(F)cc4s3)c2O1` [Compound 183, 2-((2,2-Dimethyl-2,3-dihydrobenzofuran-7-yl)oxy)-N-(6-fluorobenzo[d]thiazol-2-yl)acetamide], the EC50 in series [1] was 4.2 µM. Also, the CC50 at 48 h in “in vitro” is over 100 µM.
Turning to `CC1(C)Cc2cccc(OCC(=O)Nc3nccc(C(F)(F)F)n3)c2O1` [Compound 28, 2-((2,2-Dimethyl-2,3-dihydrobenzofuran-7-yl)oxy)-N-(4-(trifluoromethyl)pyrimidin-2-yl)acetamide], in series [1], the EC50 is over 25 µM and the activity at 100 µM stood at 80%. In “in vitro”, this compound returned a CC50 of over 100 µM and a CC50 at 48 h of over 100 µM.
Turning to `Cc1csc(N(C(=O)COc2cccc3c2OC(C)(C)C3)c2ccccn2)n1` [Compound 91, 2-((2,2-Dimethyl-2,3-dihydrobenzofuran-7-yl)oxy)-N-(4-methylthiazol-2-yl)-N-(pyridin-2-yl)acetamide], the EC50 in series [1] is 0.89 µM. In “in vitro”, the CC50 at 48 h is over 100 µM.
Regarding `CC1(C)Cc2cccc(OCC(=O)Nc3ccc(C4CC4)cn3)c2O1` [Compound 71, N-(5-Cyclopropylpyridin-2-yl)-2-((2,2-dimethyl-2,3-dihydrobenzofuran-7-yl)oxy)acetamide], the EC50 in series [1] amounted to 0.15 µM. This compound also displayed a CC50 at 48 h in “in vitro” of over 125 µM.
For `Cc1csc(N(Cc2cccnc2)C(=O)COc2cccc3c2OC(C)(C)C3)n1` [Compound 34, 2-((2,2-Dimethyl-2,3-dihydrobenzofuran-7-yl)oxy)-N-(4-methylthiazol-2-yl)-N-(pyridin-3-ylmethyl)acetamide], in that order: 1.4 µM and 12 µM.
Turning to `Cc1ccc(CN(C(=O)COc2cccc3c2OC(C)(C)C3)c2ccc(C)cn2)cc1` [Compound 47, 2-((2,2-Dimethyl-2,3-dihydrobenzofuran-7-yl)oxy)-N-(4-methylbenzyl)-N-(5-methylpyridin-2-yl)acetamide], in series [1], the EC50 came out at 5.5 µM. The compound further came in with a CC50 at 48 h in “in vitro” of over 125 µM.
Consider `COc1ccccc1N(C(=O)COc1cccc2c1OC(C)(C)C2)c1nc(C)cs1` [Compound 55, 2-((2,2-Dimethyl-2,3-dihydrobenzofuran-7-yl)oxy)-N-(2-methoxyphenyl)-N-(4-methylthiazol-2-yl)acetamide], for which the EC50 in series [1] is 0.21 µM. This compound had a CC50 at 48 h in “in vitro” of over 125 µM.
With `CC1(C)Cc2cccc(OCC(=O)Nc3nc(C4CC4)cs3)c2O1` [Compound 5, N-(4-Cyclopropylthiazol-2-yl)-2-((2,2-dimethyl-2,3-dihydrobenzofuran-7-yl)oxy)acetamide], the EC50 in series [1] stood at 0.55 µM. In “in vitro”, this compound had a CC50 at 48 h of over 100 µM.
Turning to `COc1ccccc1OCC(=O)Nc1nc2ccccc2s1` [Compound 187, N-(Benzo[d]thiazol-2-yl)-2-(2-methoxyphenoxy)acetamide], in series [1], the EC50 is at least 25 µM and the activity at 100 µM amounted to 45%. In the series “in vitro”, the CC50 was over 100 µM and the CC50 at 48 h was over 100 µM.
With `Cc1ccc(N(C(=O)COc2cccc3c2OC(C)(C)C3)c2ccccc2)nn1` [Compound 89, 2-((2,2-Dimethyl-2,3-dihydrobenzofuran-7-yl)oxy)-N-(6-methylpyridazin-3-yl)-N-phenylacetamide], in series [1], the EC50 worked out at 0.38 µM. Also, the CC50 at 48 h in the series “in vitro” was over 100 µM.
`Cc1ccc(NC(=O)COc2cccc3c2OC(C)(C)C3)cn1` [Compound 11, 2-((2,2-Dimethyl-2,3-dihydrobenzofuran-7-yl)oxy)-N-(6-methylpyridin-3-yl) acetamide]: in series [1], the EC50 is over 25 µM and the activity at 100 µM is 48%. In “in vitro”, this compound returned a CC50 of over 100 µM and a CC50 at 48 h of over 100 µM.
`Cc1cc(NC(=O)COc2cccc3c2OC(C)(C)C3)ncc1Cl` [Compound 18, N-(5-Chloro-4-methylpyridin-2-yl)-2-((2,2-dimethyl-2,3-dihydrobenzofuran-7-yl)oxy)acetamide]: the EC50 in series [1] was 18 µM. The same compound came in with a CC50 at 48 h in “in vitro” of over 125 µM.
As to `Cc1csc(N(C(=O)COc2cccc3c2OC(C)(C)C3)c2cccnc2)n1` [Compound 65, 2-((2,2-Dimethyl-2,3-dihydrobenzofuran-7-yl)oxy)-N-(4-methylthiazol-2-yl)-N-(pyridin-3-yl)acetamide], in series [1], the EC50 is 0.88 µM. Also, in the series “in vitro”, the CC50 at 48 h is over 125 µM.
